Experimental data from ChEMBL document CHEMBL1137759, “Design, parallel synthesis, and crystal structures of biphenyl antithrombotics as selective inhibitors of tissue factor FVIIa complex. Part 1: Exploration of S2 pocket pharmacophores” (Bioorg Med Chem, 2009).

Biological target: Coagulation factor VII/tissue factor (Homo sapiens, UniProt P08709)
Test: Inhibition of tissue factor/factor 7a
Assay type: protein-complex assay

Chain of Coagulation factor VII/tissue factor (P08709 61-212 limits assumed): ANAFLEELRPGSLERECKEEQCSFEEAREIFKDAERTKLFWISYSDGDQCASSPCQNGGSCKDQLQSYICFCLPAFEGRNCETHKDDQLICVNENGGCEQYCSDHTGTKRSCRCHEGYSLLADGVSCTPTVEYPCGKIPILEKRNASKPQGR
Chain of Coagulation factor VII/tissue factor (P08709 213-466 limits assumed): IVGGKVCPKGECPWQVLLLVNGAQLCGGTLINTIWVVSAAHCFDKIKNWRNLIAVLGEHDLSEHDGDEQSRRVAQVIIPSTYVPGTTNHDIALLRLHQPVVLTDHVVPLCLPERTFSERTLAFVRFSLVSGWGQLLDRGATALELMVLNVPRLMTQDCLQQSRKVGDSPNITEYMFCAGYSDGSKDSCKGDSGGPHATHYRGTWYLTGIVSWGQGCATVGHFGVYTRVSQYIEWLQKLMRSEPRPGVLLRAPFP
Chain of Coagulation factor VII/tissue factor (P13726 33-295 partner limits assumed): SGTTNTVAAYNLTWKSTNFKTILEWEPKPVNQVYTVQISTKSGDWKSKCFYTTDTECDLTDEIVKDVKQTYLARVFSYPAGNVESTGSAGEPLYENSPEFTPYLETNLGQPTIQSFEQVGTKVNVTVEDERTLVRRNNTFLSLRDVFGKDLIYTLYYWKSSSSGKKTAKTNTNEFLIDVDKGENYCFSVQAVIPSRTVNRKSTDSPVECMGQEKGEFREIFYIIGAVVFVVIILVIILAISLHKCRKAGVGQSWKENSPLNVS

Going from `C=C(C)c1ccc(-c2ccc(C(=O)NCC(C)C)cc2C(=O)O)c(C(=O)Nc2ccc(C(=N)N)cc2)c1` to `C#Cc1ccc(-c2ccc(C(=O)NCC(C)C)cc2C(=O)O)c(C(=O)Nc2ccc(C(=N)N)cc2)c1`, the IC50 rises from 13 nM to 25 nM (1.9-fold).

`CC(C)CNC(=O)c1ccc(-c2ccc(-c3ccc[nH]3)cc2C(=O)Nc2ccc(C(=N)N)cc2)c(C(=O)O)c1` and `CC(C)CNC(=O)c1ccc(-c2ccc(-c3cccs3)cc2C(=O)Nc2ccc(C(=N)N)cc2)c(C(=O)O)c1` are within 1.5-fold of each other in IC50: 14 nM for the first, 10 nM for the second.

Compared with `CC(C)CNC(=O)c1ccc(-c2ccc(C=CCO)cc2C(=O)Nc2ccc(C(=N)N)cc2)c(C(=O)O)c1`, `C/C=C\Cc1ccc(-c2ccc(C(=O)NCC(C)C)cc2C(=O)O)c(C(=O)Nc2ccc(C(=N)N)cc2)c1` is 4.7-fold lower in IC50: 52 nM for the first, 11 nM for the second. The second is the more potent here.

Compared with `CC(C)CNC(=O)c1ccc(-c2ccc(-c3cscc3CN)cc2C(=O)Nc2ccc(C(=N)N)cc2)c(C(=O)O)c1`, `CC(C)CNC(=O)c1ccc(-c2ccc(-c3sccc3CO)cc2C(=O)Nc2ccc(C(=N)N)cc2)c(C(=O)O)c1` is 10-fold higher in IC50: 33 nM for the first, 330 nM for the second.

Compared with `CCCc1ccc(-c2ccc(C(=O)NCC(C)C)cc2C(=O)O)c(C(=O)Nc2ccc(C(=N)N)cc2)c1`, `CC(C)CNC(=O)c1ccc(-c2ccc(C#CCO)cc2C(=O)Nc2ccc(C(=N)N)cc2)c(C(=O)O)c1` is 3.5-fold higher in IC50: 92 nM for the first, 320 nM for the second.

For `CC(C)CNC(=O)c1ccc(-c2ccc(C#CCCO)cc2C(=O)Nc2ccc(C(=N)N)cc2)c(C(=O)O)c1`, the IC50 was 500 nM.

Biological target: Prothrombin (Homo sapiens, UniProt P00734)
Test: Inhibition of thrombin

Compared with `C=C(C)c1ccc(-c2ccc(C(=O)NCC(C)C)cc2C(=O)O)c(C(=O)Nc2ccc(C(=N)N)cc2)c1`, `C#Cc1ccc(-c2ccc(C(=O)NCC(C)C)cc2C(=O)O)c(C(=O)Nc2ccc(C(=N)N)cc2)c1` is 2.8-fold higher in IC50: 17.9 µM for the first, 50.2 µM for the second. The first is the more potent here.

Compared with `CC(C)CNC(=O)c1ccc(-c2ccc(-c3ccc[nH]3)cc2C(=O)Nc2ccc(C(=N)N)cc2)c(C(=O)O)c1`, `CC(C)CNC(=O)c1ccc(-c2ccc(-c3cccs3)cc2C(=O)Nc2ccc(C(=N)N)cc2)c(C(=O)O)c1` is 2.5-fold lower in IC50: 19.9 µM for the first, 8.02 µM for the second. The second is the more potent here.

Compared with `CC(C)CNC(=O)c1ccc(-c2ccc(C=CCO)cc2C(=O)Nc2ccc(C(=N)N)cc2)c(C(=O)O)c1`, `C/C=C\Cc1ccc(-c2ccc(C(=O)NCC(C)C)cc2C(=O)O)c(C(=O)Nc2ccc(C(=N)N)cc2)c1` is 4.7-fold lower in IC50: 22.7 µM for the first, 4.88 µM for the second.

Compared with `CC(C)CNC(=O)c1ccc(-c2ccc(-c3cscc3CN)cc2C(=O)Nc2ccc(C(=N)N)cc2)c(C(=O)O)c1`, `CC(C)CNC(=O)c1ccc(-c2ccc(-c3sccc3CO)cc2C(=O)Nc2ccc(C(=N)N)cc2)c(C(=O)O)c1` is 2.2-fold lower in IC50: 110 µM for the first, 50 µM for the second. The second is the more potent here.

Compared with `CCCc1ccc(-c2ccc(C(=O)NCC(C)C)cc2C(=O)O)c(C(=O)Nc2ccc(C(=N)N)cc2)c1`, `CC(C)CNC(=O)c1ccc(-c2ccc(C#CCCO)cc2C(=O)Nc2ccc(C(=N)N)cc2)c(C(=O)O)c1` is 2.2-fold lower in IC50: 39.6 µM for the first, 17.9 µM for the second. The second is the more potent here.

Biological target: Plasminogen (Homo sapiens, UniProt P00747)
Test: Inhibition of plasmin

Chain of Plasminogen (P00747 97-580 limits assumed): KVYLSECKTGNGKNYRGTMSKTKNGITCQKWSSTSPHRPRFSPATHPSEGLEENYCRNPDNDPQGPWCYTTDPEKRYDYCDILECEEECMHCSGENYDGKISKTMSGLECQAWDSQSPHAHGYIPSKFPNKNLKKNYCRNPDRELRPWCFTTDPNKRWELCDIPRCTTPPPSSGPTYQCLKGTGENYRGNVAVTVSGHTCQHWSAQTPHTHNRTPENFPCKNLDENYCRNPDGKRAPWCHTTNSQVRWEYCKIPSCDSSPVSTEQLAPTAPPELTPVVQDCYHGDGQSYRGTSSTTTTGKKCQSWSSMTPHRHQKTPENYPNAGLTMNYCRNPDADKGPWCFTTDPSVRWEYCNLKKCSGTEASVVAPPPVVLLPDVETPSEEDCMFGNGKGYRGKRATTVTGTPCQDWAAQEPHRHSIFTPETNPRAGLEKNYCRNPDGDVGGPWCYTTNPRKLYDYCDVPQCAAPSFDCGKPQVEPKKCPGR
Chain of Plasminogen (P00747 581-810 limits assumed): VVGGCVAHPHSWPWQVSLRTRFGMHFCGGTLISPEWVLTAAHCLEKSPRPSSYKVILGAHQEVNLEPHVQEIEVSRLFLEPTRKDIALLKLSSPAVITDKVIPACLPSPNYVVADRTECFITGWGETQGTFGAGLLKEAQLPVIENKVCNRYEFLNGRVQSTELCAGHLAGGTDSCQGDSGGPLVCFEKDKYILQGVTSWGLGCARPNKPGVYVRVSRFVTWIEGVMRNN

Going from `C=C(C)c1ccc(-c2ccc(C(=O)NCC(C)C)cc2C(=O)O)c(C(=O)Nc2ccc(C(=N)N)cc2)c1` to `C#Cc1ccc(-c2ccc(C(=O)NCC(C)C)cc2C(=O)O)c(C(=O)Nc2ccc(C(=N)N)cc2)c1`, the IC50 rises from 70 nM to 1000 nM (14-fold).

Compared with `CC(C)CNC(=O)c1ccc(-c2ccc(-c3cscc3CN)cc2C(=O)Nc2ccc(C(=N)N)cc2)c(C(=O)O)c1`, `CCCc1ccc(-c2ccc(C(=O)NCC(C)C)cc2C(=O)O)c(C(=O)Nc2ccc(C(=N)N)cc2)c1` is higher in IC50: 229 nM for the first, greater than 5000 nM for the second. The first is the more potent here.

Work on `C/C=C\Cc1ccc(-c2ccc(C(=O)NCC(C)C)cc2C(=O)O)c(C(=O)Nc2ccc(C(=N)N)cc2)c1` yielded an IC50 of 684 nM.

Test system: not listed separately
Test: Selectivity ratio of IC50 for tissue factor/factor 7a to IC50 for trypsin

Going from `C=C(C)c1ccc(-c2ccc(C(=O)NCC(C)C)cc2C(=O)O)c(C(=O)Nc2ccc(C(=N)N)cc2)c1` to `C#Cc1ccc(-c2ccc(C(=O)NCC(C)C)cc2C(=O)O)c(C(=O)Nc2ccc(C(=N)N)cc2)c1`, the Ratio IC50 rises from 40.8 to 115.

Going from `CC(C)CNC(=O)c1ccc(-c2ccc(-c3ccc[nH]3)cc2C(=O)Nc2ccc(C(=N)N)cc2)c(C(=O)O)c1` to `CC(C)CNC(=O)c1ccc(-c2ccc(-c3cccs3)cc2C(=O)Nc2ccc(C(=N)N)cc2)c(C(=O)O)c1`, the Ratio IC50 falls from 30.7 to 16.

Going from `CC(C)CNC(=O)c1ccc(-c2ccc(C=CCO)cc2C(=O)Nc2ccc(C(=N)N)cc2)c(C(=O)O)c1` to `C/C=C\Cc1ccc(-c2ccc(C(=O)NCC(C)C)cc2C(=O)O)c(C(=O)Nc2ccc(C(=N)N)cc2)c1`, the Ratio IC50 rises from 34 to 119.

First: CC(C)CNC(=O)c1ccc(-c2ccc(-c3cscc3CN)cc2C(=O)Nc2ccc(C(=N)N)cc2)c(C(=O)O)c1
Second: CC(C)CNC(=O)c1ccc(-c2ccc(-c3sccc3CO)cc2C(=O)Nc2ccc(C(=N)N)cc2)c(C(=O)O)c1
The Ratio IC50 of the first is higher: 54.2 for the first, 13.3 for the second.

Compared with `CCCc1ccc(-c2ccc(C(=O)NCC(C)C)cc2C(=O)O)c(C(=O)Nc2ccc(C(=N)N)cc2)c1`, `CC(C)CNC(=O)c1ccc(-c2ccc(C#CCCO)cc2C(=O)Nc2ccc(C(=N)N)cc2)c(C(=O)O)c1` is lower in Ratio IC50: 450 for the first, 0.8 for the second.

Biological target: Coagulation factor X (Homo sapiens, UniProt P00742)
Sequence (P00742 41-179 limits assumed): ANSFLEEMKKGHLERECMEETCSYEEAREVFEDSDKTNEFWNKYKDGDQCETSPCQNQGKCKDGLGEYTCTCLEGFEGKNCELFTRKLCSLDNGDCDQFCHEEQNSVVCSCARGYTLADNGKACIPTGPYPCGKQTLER
Sequence (P00742 235-488 limits assumed): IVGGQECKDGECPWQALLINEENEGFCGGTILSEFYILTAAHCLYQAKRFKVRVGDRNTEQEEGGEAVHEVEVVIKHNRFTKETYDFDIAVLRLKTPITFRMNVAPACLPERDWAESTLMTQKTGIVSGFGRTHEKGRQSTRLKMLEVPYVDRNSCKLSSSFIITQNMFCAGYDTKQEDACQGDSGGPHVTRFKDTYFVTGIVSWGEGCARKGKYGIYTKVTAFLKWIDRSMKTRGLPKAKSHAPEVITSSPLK

First: C=C(C)c1ccc(-c2ccc(C(=O)NCC(C)C)cc2C(=O)O)c(C(=O)Nc2ccc(C(=N)N)cc2)c1
Second: C#Cc1ccc(-c2ccc(C(=O)NCC(C)C)cc2C(=O)O)c(C(=O)Nc2ccc(C(=N)N)cc2)c1
The IC50 of the first is 7-fold lower: 1.17 µM for the first, 8.14 µM for the second.

Compared with `CC(C)CNC(=O)c1ccc(-c2ccc(-c3ccc[nH]3)cc2C(=O)Nc2ccc(C(=N)N)cc2)c(C(=O)O)c1`, `CC(C)CNC(=O)c1ccc(-c2ccc(-c3cccs3)cc2C(=O)Nc2ccc(C(=N)N)cc2)c(C(=O)O)c1` is 3-fold higher in IC50: 0.05 µM for the first, 0.15 µM for the second. The first is the more potent here.

`CC(C)CNC(=O)c1ccc(-c2ccc(C=CCO)cc2C(=O)Nc2ccc(C(=N)N)cc2)c(C(=O)O)c1` and `C/C=C\Cc1ccc(-c2ccc(C(=O)NCC(C)C)cc2C(=O)O)c(C(=O)Nc2ccc(C(=N)N)cc2)c1` are within 1.5-fold of each other in IC50: 6.62 µM for the first, 7.6 µM for the second.

Compared with `CC(C)CNC(=O)c1ccc(-c2ccc(-c3cscc3CN)cc2C(=O)Nc2ccc(C(=N)N)cc2)c(C(=O)O)c1`, `CC(C)CNC(=O)c1ccc(-c2ccc(-c3sccc3CO)cc2C(=O)Nc2ccc(C(=N)N)cc2)c(C(=O)O)c1` is 64-fold higher in IC50: 0.01 µM for the first, 0.64 µM for the second.

`CCCc1ccc(-c2ccc(C(=O)NCC(C)C)cc2C(=O)O)c(C(=O)Nc2ccc(C(=N)N)cc2)c1` and `CC(C)CNC(=O)c1ccc(-c2ccc(C#CCCO)cc2C(=O)Nc2ccc(C(=N)N)cc2)c(C(=O)O)c1` are within 1.5-fold of each other in IC50: 46 µM for the first, 59 µM for the second.
